# Test results: US6287813A, “Antibiotic-based gene regulation system” (Cistronics Cell Technology GmbH, priority 1999, dated 2001)
# How the values were obtained:
# Type in all cases: cell-based
# PIT/PPIR system = target: T1, PIT/PPIR system (Streptomyces coelicolor, UniProt Q9ADN3); assay: SEAP reporter assay, CHO-TWIN clones transfected with pMF172 (PPIR-SEAP); conditions: for SEAP Production (%): 48 h, no inducer = 100
# T1 construct: pMF156/pTWIN in CHO cells, PPIR-SEAP or GFP reporter
# T1 sequence (Q9ADN3 1-252): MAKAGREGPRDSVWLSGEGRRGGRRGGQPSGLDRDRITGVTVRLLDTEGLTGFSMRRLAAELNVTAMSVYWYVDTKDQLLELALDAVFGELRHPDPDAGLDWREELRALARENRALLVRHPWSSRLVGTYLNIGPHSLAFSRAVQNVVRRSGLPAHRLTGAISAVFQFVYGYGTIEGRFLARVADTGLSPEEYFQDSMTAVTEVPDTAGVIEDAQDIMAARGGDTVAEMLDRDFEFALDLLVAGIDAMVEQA
# Text: (§1) pTWIN contains both PIT and tTA in a PSV40 -driven dicistronic configuration. For construction of pTWIN, PIT was first transferred from pMF156 as an EcoRI/HindIII fragment to the corresponding sites of pSBC-1 (EcoRI/HindIII; resulting in pMF167) before the PIT expression unit could be fused to the tTA expression unit contained on pSBC2-tTA (Fussenegger et al., 1997, supra) via SspI/NotI sites. Thus, pTWIN contains the dicistronic PSV40 -PIT-IRES-tTA-pA expression cassette.
# (§2) Chinese hamster ovary cells (CHO-K1, ATCC: CCL 61), Baby hamster kidney cells (BHK-21, ATCC: CRL-8544), and HeLa cells (ATCC: CRL-7923) as well as stable cell lines CHO-PIT1, CHO-PIT2, CHO-TWIN195, CHO-TWIN1108 and CHO-PIT1-SEAP were cultured as described before (Fussenegger et al., 1998, Nat. Biotechnol. 16,468-472) in the presence of appropriate antibiotics: G418 400 μg/ml; zeocin 100 μg/ml. Optimized CaPO4 protocols were used for high efficiency transient transfection of all cell lines (id). Transient transfected cells were routinely analyzed after 48 h for GFP or SEAP expression using fluorescence microscopy and p-nitrophenolphosphate-based light absorbance timecourse, respectively, as described before (Fussenegger et al., 1998, Nat. Biotechnol. 16, 468-472; Berger et al., 1988, Gene 66, 1-10 b). For construction of stable CHO-PIT and CHO-TWIN cell lines, CHO-K1 was cotransfected either with pMF156 or pTWIN1 and pSV2neo carrying the G418 resistance gene. CHO-PIT1-SEAP was constructed by cotransfection of pMF172 and pZeoSV2 (Invitrogen). For assessment of dose-response characteristics of PPIR -regulated gene expression, CHO-PIT1-SEAP were cultured at cell densities of 150,000/ml for 48 at various PI concentrations. The mixed populations were cloned using FACS-mediated single-cell-sorting (FACStar^Plus; Beckton Dickinson). Gel retardation assay were performed as described (Salah-Bey et al., 1995, supra) using Pip purified from an overproducing strain of E. coli. Pip (0.02 pmol) was titrated with a range of antibiotic concentrations in a reaction volume of 20 μl. Protein solutions were pre-incubated at room temperature for 15 min. in the absence or presence of PI or its derivative quinupristin in a buffer containing 10 mM Tris (pH 7.8), 10 mM MgCl2, 300 mM NaCl, 2 mM DTT and 10% glycerol. An EcoRI-HindII PPTR fragment (0.02 pmol) containing three Pip binding sites (radiolabelled using α-^32 P)dATP was added and incubated for 15 min. To minimize nonspecific protein binding and increase protein stability, 2 μg of poly dIdC and 20 μg BSA were included in the incubation mix. Protein-DNA complexes were separated on 5% polyacrylamide,TBE gels and visualized by autoradiography.
# (§3) CHO-TWIN195 and CHO-TWIN1108 were transfected under identical conditions with the isogenic plasmids containing the SEAP gene under control of the tTA-activated promoter PhCMV*-1 (pMF111) or the PIT-activated promoter PPIR (pMF172). Transfected cells were grown for 48 h in the presence or absence of either antibiotic prior to assay of SEAP activity.
# (§4) Table 6: Comparison of the regulation performance of streptogramin- (PI and virginiamycin; VIR) and tetracycline-based gene regulation systems. The two cell clones CHO-TWIN195 and CHO-TWIN1108 containing both pristinamycin- and tetracycline-dependent transactivators were transfected with either the streptogramin-responsive or the TET-responsive SEAP reporter plasmids pMF172 (PPIR -SEAP) and pMF111 (PhCMV*-1 -SEAP), respectively, and the relative SEAP production was assessed. SEAP production values are normalized by SEAP activities under the antibiotic-free, active promoter conditions as follows: pMF172 in CHO-TWIN195:1.7 mU/ml; in CHO-TWIN1108 : 1.8 mU/ml. pMF111 in CHO-TWIN195 : 18.6 mU/ml; in CHO-TWIN1108 : 19.2 mU/ml.
# (§5) Table 7: Compatibility of the streptogramin- and tetracycline-based gene regulation systems. Crossregulation of pristinamycin (PI) and the tetracyclines doxycycline (DOX) and tetracycline (TET). […]
# [1] = target: T2, TET-responsive system (tTA/PhCMV*-1) (Escherichia coli, UniProt P04483); assay: SEAP reporter assay, CHO-TWIN clones transfected with pMF111 (PhCMV*-1-SEAP); conditions: CHO-TWIN1108 + pMF111; for SEAP Production (%): crossregulation
# T2 construct: expressed in transfected cells; host or cells: CHO-K1 clones CHO-TWIN195 and CHO-TWIN1108 (pTWIN1)
# T2 sequence (P04483 whole entry, added parts left off): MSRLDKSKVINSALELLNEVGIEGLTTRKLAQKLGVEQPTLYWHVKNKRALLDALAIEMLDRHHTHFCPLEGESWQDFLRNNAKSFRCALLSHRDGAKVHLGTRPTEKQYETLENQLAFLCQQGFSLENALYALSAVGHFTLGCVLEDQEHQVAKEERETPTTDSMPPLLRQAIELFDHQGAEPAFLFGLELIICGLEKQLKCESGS
# Text: as §1, §2, §3, §4, §5
# PIT2 (Pip-p65)/PPIR = target: T3, PIT2 (Pip-p65)/PPIR (Streptomyces coelicolor, UniProt Q9ADN3); assay: SEAP reporter assay, CHO-K1 cotransfected with pMF206 (PIT2; Pip-p65) and pMF172 (PPIR-SEAP); conditions: +PI (2 μg/ml), 48 hr post transfection
# T3 construct: pMF206 with pMF172 (PPIR-SEAP) in CHO-K1
# T3 sequence (Q9ADN3 1-252): T1 sequence (Q9ADN3 1-252)
# Text: PIT2, the fusion protein of Pip and the p65 transactivation domain of the human NF-κB transcription activator was cloned in a three step procedure: (i) The p65 domain of the human NF-κB transcription activator was amplified from pSG424-p65 (kindly provided by H. Hauser, GBF, Braunschweig, Germany) with oligos OMF97:
# Chinese hamster ovary cells (CHO-K1, ATCC: CCL 61), Baby hamster kidney cells (BHK-21, ATCC: CRL-8544), and HeLa cells (ATCC: CRL-7923) as well as stable cell lines CHO-PIT1, CHO-PIT2, CHO-TWIN195, CHO-TWIN1108 and CHO-PIT1-SEAP were cultured as described before (Fussenegger et al., 1998, Nat. Biotechnol. 16,468-472) in the presence of appropriate antibiotics: G418 400 μg/ml; zeocin 100 μg/ml. Optimized CaPO4 protocols were used for high efficiency transient transfection of all cell lines (id). Transient transfected cells were routinely analyzed after 48 h for GFP or SEAP expression using fluorescence microscopy and p-nitrophenolphosphate-based light absorbance timecourse, respectively, as described before (Fussenegger et al., 1998, Nat. Biotechnol. 16, 468-472; Berger et al., 1988, Gene 66, 1-10 b). […]
# In addition, pMF206 (PIT2; Pip-p65) was cotransfected with pMF172 (PPIR -SEAP) and the SEAP readout in the absence and presence of PI (2 μg/ml) was directly compared to CHO-K1 cells cotransfected with pMF156 (PIT; Pip-VP16) and pMF172 (PPIR -SEAP). […]
substance,measurement,setting,value
pristinamycin I [PI],Induction factor (IF; ratio of maximal expression level to antibiotic-repressed expression level),PIT/PPIR system; CHO-TWIN195 + pMF172,12
same,SEAP Production (%),PIT/PPIR system; CHO-TWIN195 + pMF172,8.84 ± 0.01%
same,Induction factor (IF; ratio of maximal expression level to antibiotic-repressed expression level),PIT/PPIR system; CHO-TWIN1108 + pMF172,45
same,SEAP Production (%),PIT/PPIR system; CHO-TWIN1108 + pMF172,2.2 ± 0.4%
same,Effect on expression from the TET-responsive system,[1],no effect
same,SEAP Production (%),[1]; 2 μg/ml,94.8 ± 5.3%
same,SEAP Production (%),"[1]; 10 μg/ml, 2880 min",92.4 ± 7.9%
same,SEAP readout (slope of the p-nitrophenolphosphate-based light absorbance time courses),PIT2 (Pip-p65)/PPIR,0.31 ± 0.003
